Series [1] has as its system Tregs in the large intestine. Conditions: germ-free mice and vancomycin-treated conventional mice; cited from earlier work.
The test system of series [2] is blautia. In words: Sugar fermentation/growth in media lacking glucose (pH and optical density).
Series [3] deals with Lactobacillus johnsonii. The description is as above.
Series [4] deals with C57B1/6 female mice. As to conditions: mouse, in vivo.
Procedure: The possibility that modification of the microbiome in a given physical location may influence the microbiome at other sites in the body (distal augmentation) was investigated. Seven week old C57B1/6 female mice were acclimatized for 7 days prior to the start of the study by daily handling and shuffling between cages. All mice were housed at three mice per cage in individually vented cages (Thoren, Hazleton, Pa.). At day 0, baseline fresh fecal pellets, and vaginal lavages with 100 μL of sterile double-distilled water were collected and immediately frozen at −80° C. for microbiome analysis. […] Water alone is not expected to influence the microbiome and acted as a negative control. […] The impact of oral vancomycin is therefore expected to be limited to the gastrointestinal tract such that microbiome changes elsewhere in the body (e.g. vagina) would be attributable to distal augmentation. At day 6, fresh fecal pellets and vaginal lavages with 100 μL of sterile double-distilled water were collected and immediately stored at −80° C. for microbiome analysis.
Isolation and sequencing of microbial DNA from the stool and vaginal samples was performed by DNA Genotek (Ottawa, ON, Canada). The V3-V4 region of the 16S ribosomal subunit was amplified with custom PCR primers and sequenced on an Illumina MiSeq to a minimum acceptable read depth of 25,000 sequences per sample. […]
Series [5] concerns healthy, adult volunteers. As to conditions: human, in vivo. On the procedure: D-xylose is a carbon source generally preferred by anaerobic bacteria. […] A parallel, double-blind, 5 cohort escalation food safety study was conducted to examine D-xylose in normal human volunteers. The study was a double-blind, single-center, parallel group study designed to evaluate the tolerability and potential microbiome changes induced by ingestion of D-xylose at 5 different amounts in healthy, adult volunteers enrolled at 1 study center in the United States (US).
Subjects were screened for eligibility within 21 days prior to the first planned ingestion of study sweetener on Day 1 (Baseline). […]
Subjects returned to the study center weekly on Days 8, 15, 22, and 28 for ingestion, tolerability, and compliance evaluations. Safety was evaluated on a continual basis through adverse events (AE) monitoring, clinical laboratory measurements, vital sign monitoring, physical examinations, electrocardiograms (ECGs), telephone follow-up, and electronic subject ingestion diaries. Stool was collected pre-ingestion and at pre-specified time points, and post-ingestion samples were evaluated for changes in the gut microbiome compared with Baseline for all subjects. […]
Safety was evaluated on a continual basis through AE monitoring, clinical laboratory measurements, vital sign monitoring, physical examinations, ECGs, telephone follow-up, and electronic subject ingestion diaries. […]

Series [6] concerns healthy, adult volunteers. Kind of series: Normal human volunteer study of D-xylose: CRP, serum cytokines, T-cell markers. Type of series: in vivo. The text has this: Blood was collected at pre-specified pre- and post-ingestion time points to evaluate C-reactive protein (CRP), serum cytokines (tumor necrosis factor alpha [TNF-α], interleukin [IL]-2, IL-6, interferon gamma [IFN-γ], and IL-10), and T-cell markers CD3, CD4, CD8, CD25, and FOXP3. Plasma was also stored and may be tested for biomarkers and/or metabolic markers for up to 7 years.
Summary statistics (n, mean, standard deviation, median, minimum, and maximum) were presented for serum concentrations of CRP, flow cytometry T-cell markers (CD3, CD4, CD8, CD25, and FOXP3), and cytokines (TNF-α, IL-2, IL-6, IFN-γ, and IL-10) as per their nominal time points.

Series [7] has as its system gut microbiome. In words: Normal human volunteer study of D-xylose: changes in the gut microbiome (stool 16S). It counts as in vivo. Conditions: for alpha diversity of the gut microbiome: over time on study.
The subject of series [8] is mice with GVHD. Kind of series: Xylose in drinking water in experimental GVHD model after BMT. It counts as in vivo, mouse.
Series [9] relates to normal mice. Kind of series: Mouse study: gut microbiome after xylose treatment. It counts as in vivo.
Series [10] deals with tumors. Conditions: oral administration; anti-PD-1 / anti-CTLA-4 antibody therapy; cited from earlier work.

`CC(=O)O` [acetate]: in series [1], the “numbers of Tregs in the large intestine” value is “restored normal numbers of Tregs in the large intestine”.
As to `CCC(=O)O` [propionate], the “numbers of Tregs in the large intestine” value in series [1] is listed as “restored normal numbers of Tregs in the large intestine”.
For `C[C@H](O)[C@H](O)[C@@H](O)[C@@H](O)C=O` [rhamnose], the “augmentation / fermentation by blautia” value in series [2] was “specifically augments blautia”. The “augmentation / fermentation by lactobacillus” value in series [3] is on record as “not lactobacillus”.
Regarding `CN[C@H](CC(C)C)C(=O)N[C@H]1C(=O)N[C@@H](CC(N)=O)C(=O)N[C@H]2C(=O)N[C@H]3C(=O)N[C@H](C(=O)N[C@H](C(=O)O)c4cc(O)cc(O)c4-c4cc3ccc4O)[C@H](O)c3ccc(c(Cl)c3)Oc3cc2cc(c3O[C@@H]2O[C@H](CO)[C@@H](O)[C@H](O)[C@H]2O[C@H]2C[C@](C)(N)[C@H](O)[C@H](C)O2)Oc2ccc(cc2Cl)[C@H]1O` [vancomycin], in series [4], the “impact on the microbiome of the gut (PCA, family level)” value is “strong impact on the microbiome of the gut”; the “impact on the vaginal microbiome (PCA, family level)” value is “showed an overall difference between the PBS and oral vancomycin groups”.
On to `O=C[C@H](O)[C@@H](O)[C@H](O)CO` [xylose, D-xylose], for which the “SAEs, severe AEs, deaths” value in series [5] is “No SAEs, severe AEs, or subject deaths were reported”. Further, the “total T-cells and T-cell subsets over time” value in [6] (any ingestion amount) was “No consistent or clinically meaningful changes over time in total T-cells or any T-cell subsets”. Besides, in [6] (cohorts combined), the “subjects with normal serum CRP at Baseline and at least 1 post-ingestion CRP value >2.9 mg/L” value is given as 8.3%. Moreover, in [6] (most data points BLQ), the “serum cytokines (TNF-α, IL-2, IL-6, IFN-γ, IL-10) over time” value is given as “did not indicate any consistent or clinically meaningful changes over time”. In [7] (regardless of ingestion amount), the “gut microbiome community composition over time” value was “no significant changes in community composition” and the “alpha diversity of the gut microbiome” value is recorded as “no major shifts in the microbiome alpha diversity”. Moreover, the “alpha diversity of the gut microbiome” value in series [7] (regardless of ingestion amount, listed as D-xylose) is “no apparent significant impact on the intra-sample alpha diversity of the gut microbiome”. Moreover, the “Chao diversity index over time” value in series [7] (xylose TID at 1, 2, 8, 12.5 or 15 grams) is “overall decrease in the Chao diversity index over time”. Moreover, the “survival of mice with GVHD” value in series [8] (long-term administration) is “led to improved survival of mice with GVHD”. In series [8] (xylose in drinking water, day 14 after BMT), the “Blautia in the intestinal flora” value is “lead to an expansion of Blautia in the intestinal flora”. Moreover, the “augmentation / fermentation by blautia” value in series [2] is on record as “specifically augments blautia”. The “augmentation / fermentation by lactobacillus” value in series [3] is on record as “not lactobacillus”. For the same compound, in [9], the “shifts in the gut microbiome” value is “did not cause major shifts in the gut microbiome but showed some differences at the family level”.
On to Bacteroides, for which the “responsiveness to checkpoint inhibitor therapy in cancer” value in series [10] was “increases the responsiveness”.
In the case of Bifidobacterium, the “responsiveness to checkpoint inhibitor therapy in cancer” value in [10] is given as “increases the responsiveness”.
